The values that follow are results of earlier work, collected in the CATMoS acute toxicity set (Mansouri et al. 2021).

Values joined by “and” are separate entries in the source; they are usually repeats but may differ in a detail not shown here. Identical values can stand only once.

One may read the LD50 as the dose at which mortality reaches 50%.

A short description of the data set: rat acute oral toxicity. As to conditions: in vivo. The source says:
[…]The data set underlying the modeling effort for this project was initially compiled by NICEATM and U.S. EPA’s CCTE. Briefly, LD50 data were collected from rat acute oral systemic toxicity tests, including limit tests, ranges/confidence intervals, and discrete LD50 values. The full data set included 21,200 LD50 entries for 15,688 substances. […] Data were reviewed to ensure that LD50 values with obvious errors in the extracted data such as unit conversion errors (e.g., comma and decimal separator misplacements) were either fixed or removed. After this review, 16,209 LD50 values remained. Many of the chemicals represented had multiple LD50 entries, requiring that a single representative value per Chemical Abstracts Service Registry Number (CASRN) identifier be defined to facilitate modeling efforts. Based on ATWG feedback and to define the representative LD50 as a protective value while accounting for the distribution across multiple LD50s, the median of the lowest quartile was computed using only discrete LD50 values (omitting limit test data and range and confidence interval data). A detailed summary of the data compilation is available online on the NICEATM webpage dedicated to the collaborative modeling project (NTP 2020).
[…][…] For categorical designations, limit test and range/confidence interval LD50 data were integrated wherever possible. As such, the number of chemicals with end point values/calls varies across the modeling end points (Table 3) based on whether chemicals had representative LD50 values and/or other data. If a chemical had both, the representative value was used to determine categorical calls rather than limit test data. Some data were useable only for certain end points and categories depending on the thresholds. For example, ranges that spanned multiple hazard categories were considered only for the binary (very toxic/nontoxic) end points and omitted from rendering a determination for hazard category assignment.
[…]The final data set comprising 11,992 chemicals was split into training and evaluation sets […], respectively. This process was performed semirandomly by ordering chemicals based on the five end points (categorical and continuous LD50 values) and partitioning every fourth record into the evaluation set accordingly. This approach was taken to ensure an equivalent distribution of the LD50 values and the different hazard categories between the training and the evaluation sets without supervised sampling of the chemicals based on structures (Figure 1A). The sources of the chemical structures were also kept equivalent between the two sets, with chemical structures obtained from DSSTox, being the highest quality, representing over 75% of each set (Figure 1B).
For the compound `C/C=C\c1ccc(OCc2ccccc2)c(OC)c1`, the 50% lethal dose (LD50) is 4900 mg/kg. Take `CCC(C(=O)c1ccc2[nH]c(=O)ccc2c1)N1CCN(c2cccc(Cl)c2)CC1` (centres undefined): the LD50 was 500 mg/kg. In the case of `CCCCOP(=O)(O)OCCCC`, the LD50 is 3200 mg/kg and 3520 mg/kg. Take `O=C1OC(=O)C2CCCCC12` (centres undefined): the LD50 was 4040 mg/kg. As for `O=C(O)c1nn(Cc2ccc(Cl)cc2)c2ccccc12`, the LD50 was 1140 mg/kg.

As to `COP(=S)(OC)SCn1nc(Cl)c(Cl)cc1=O`, the LD50 is 12000 mg/kg. In the case of `CCC(CCN(CC=C(C)C)CC=C(C)C)(C(N)=O)c1cccc2ccccc12` (centres undefined), the LD50 is 283 mg/kg. `CC1CC(C)(C)OB(OC(C)CC(C)(C)OB2OC(C)CC(C)(C)O2)O1` (centres undefined): the LD50 was 4720 mg/kg.

With `c1ccc2c(c1)CCCC2`, the LD50 was 2860 mg/kg. Regarding `CC1Cc2cc(C(=O)CCc3ccccc3)ccc2O1` (centres undefined), the LD50 is 2150 mg/kg.

Regarding `NNC(=O)CCCCCCCCC(=O)NN`, the LD50 is 2500 mg/kg. Take `COc1cc2ccc(=O)oc2cc1O`: the LD50 was 3800 mg/kg. Regarding `CCCCCCCCCCF`, the LD50 was 5 mg/kg.

For the compound `O=[N+]([O-])c1ccc(Oc2c(Cl)cc(Cl)cc2Cl)cc1`, the LD50 was 10800 mg/kg. For `CCC1(c2ccccc2)CCNC1=O` (centres undefined), the LD50 is 990 mg/kg. With `O=[N+]([O-])c1cc2c(ccc3ccccc32)o1`, the LD50 was 439 mg/kg. For the compound `CCOP(=O)(OCC)Oc1ccc2ccc(=O)oc2c1`, the 50% lethal dose (LD50) is 29 mg/kg. As to `CCN(C(=O)c1cc(Cl)nc(Cl)c1)C1CC1`, the LD50 is 78 mg/kg. With `CN(C)S(=O)(=O)N(SC(F)(Cl)Cl)c1ccccc1`, the LD50 was 500 mg/kg. In the case of `CNC(=O)Oc1cc(C(C)C)c(OC(=O)NC)cc1C`, the LD50 is 60 mg/kg. `O=C(Cc1ccc(-c2ccccc2)cc1)Nc1ccccn1`: the LD50 was 1860 mg/kg.

As to `CCN(CC)CCOc1ccc(C2=C(c3ccccc3)CCc3cc(OC)ccc32)cc1`, the LD50 was 547 mg/kg. As for `CCCCC1C(=O)NC(=O)N(C2CCCCC2)C1=O` (centres undefined), the LD50 was 1120 mg/kg. In the case of `N#CC1CCCCC1`, the LD50 was 80 mg/kg. With `OC/C=C/Cl`, the LD50 was 102 mg/kg.

For `CN(C)CCN1C(=O)c2ccccc2N(C)c2ccccc21`, the LD50 is 220 mg/kg. With `COc1cc2c(cc1OC)-c1c(OC)c(OC)cc3c1[C@H](C2)N(C)CC3`, the LD50 was 545 mg/kg.

As for `c1ccc(C2=NCOCS2)cc1`, the LD50 was 650 mg/kg. Regarding `O=[N+]([O-])c1ccc(O)c2ncccc12`, the LD50 is 510 mg/kg.

Turning to `CCNC(N)=S`, the 50% lethal dose (LD50) was 100 mg/kg. Take `Clc1cc(Cl)c(Cl)cc1Cl`: the LD50 is 1500 mg/kg. In the case of `CCCCCCCc1cc(C)c(O)c(C)c1`, the LD50 is 1600 mg/kg. As to `CC(C)/N=C(\N)NC(C)C`, the LD50 is 2880 mg/kg. For the compound `Nc1cccc2c3c([nH]c12)CCCC3`, the median lethal dose (LD50) is 1380 mg/kg. Take `CC(C)(C)NCC(O)CSc1nc(-c2ccc(C(N)=O)s2)cs1` (centres undefined): the LD50 was 86 mg/kg. As to `O=C(OCC=Cc1ccccc1)c1ccccc1`, the LD50 was 4000 mg/kg. For the compound `Cc1c(Cl)c(Br)c(Br)c2[nH]c(C(F)(F)F)nc12`, the median lethal dose (LD50) was 23 mg/kg. On to `O=C(OC1CCC(N2CCCCC2)CC1)c1ccccc1` (centres undefined), for which the LD50 is 780 mg/kg. As for `CCCOP(=O)(OCCC)Oc1cnn(C)c(=O)c1OC`, the LD50 is 15 mg/kg. Regarding `CC(=NNCCC1CCCCC1)C(=O)O`, the 50% lethal dose (LD50) was 520 mg/kg.

As for `Cn1c2ccccc2c2cc(N)ccc21`, the LD50 is 347 mg/kg. `CCN1CCCC1CNS(=O)(=O)c1cc(Cl)c(N)cc1OC` (centres undefined): the 50% lethal dose (LD50) was 1500 mg/kg. As for `O=C(OC1CCC(N2CCCCC2)CC1)c1ccc([N+](=O)[O-])cc1` (centres undefined), the LD50 is 3250 mg/kg.

For the compound `CC1CSC(c2ccccc2OC(=O)N(C)C)S1` (centres undefined), the 50% lethal dose (LD50) is 140 mg/kg. As to `CC(=O)N(C)C(=O)Oc1cccc(C(C)(C)C)c1`, the median lethal dose (LD50) was 1000 mg/kg. As for `N=C(NN=Cc1ccc(Cl)cc1)NN=Cc1ccc(Cl)cc1`, the LD50 was 1350 mg/kg.

As to `CN1CC2=C(C1)CN(c1c(F)cc3c(=O)c(C(=O)O)cn(C4CC4)c3c1F)C2`, the LD50 is 1060 mg/kg.

As to `S=C(C=Cc1ccc2c(c1)OCO2)N1CCOCC1`, the LD50 is 285 mg/kg. On to `COP(=O)(OC)OC(Cl)C(Cl)(Cl)Cl` (centres undefined), for which the LD50 is 14 mg/kg. In the case of `CC(=O)c1ccc(OCC(=O)NN)cc1`, the LD50 is 1820 mg/kg. Consider `CC(C)(C)C(=O)C(Oc1ccc(Cl)cc1)n1ccnc1` (centres undefined), for which the median lethal dose (LD50) was 400 mg/kg. Take `CN(C)CCCOc1nn(Cc2ccccc2)c2ccccc12`: the LD50 was 740 mg/kg and 950 mg/kg. Turning to `O=C(NCNC(=O)NC1C(=O)NC(=O)N1CO)NC1C(=O)NC(=O)N1CO` (centres undefined), the LD50 is 11300 mg/kg. Turning to `S=C1NCCNC(=S)S1`, the LD50 is 240 mg/kg.
